Key:
Assay type in all cases: cell-based
[1] = system: DENV-2 NGC-Tongalike; assay: Tetravalent RT-qPCR assay Protocol B, serotype 2; conditions: Dengue virus, DENV2, Vero, 96 h
Experimental: Vero cells (4×10^4) were seeded in 96-well plates. After one day, cell culture medium was replaced with 100 μL assay medium containing a 2×, 3× or 5× serial dilution of the compound (concentration range: 50 μg/mL-0.00038 μg/mL, 50 μg/mL-0.0076 μg/mL, and 50 μg/mL-0.00013 μg/mL, respectively) and 100 μL of dengue virus dilution, where a Ct of ˜20 is achieved in RTqPCR. Following a 2 hour incubation period, the cell monolayer was washed 3 times with assay medium to remove residual, non-adsorbed virus and cultures were further incubated for either 4 days (DENV-2 NGC-Tongalike) or 7 days (DENV-1 Djibouti strain D1/H/IMTSSA/98/606, DENV-3 strain H87 prototype, DENV-4 strain H241) in the presence of the inhibitor. Supernatant was harvested and viral RNA load was determined by real-time quantitative RT-PCR. The 50% effective concentration (EC50), which is defined as the compound concentration that is required to inhibit viral RNA replication by 50%, was determined using logarithmic interpolation (Tables 7 and 8).
RNA was isolated from 100 μL supernatant with the NucleoSpin 96 Virus kit (Filter Service, Düren, Germany) as described by the manufacturer. The sequences of the TaqMan primers (DENV-For, DENV-Rev; Table 5) and TaqMan probes (DENV-Probe Table 5) were selected from non-structural gene 3 (NS3) or NSS, of the respective flaviviruses using Primer Express software (version 2.0; Applied Biosystems, Lennik, Belgium). The TaqMan probe was fluorescently labelled with 6-carboxyfluorescein (FAM) at the 5′ end as the reporter dye, and with minor groove binder (MGB) at the 3′ end as the quencher (Table 5). One-step, quantitative RT-PCR was performed in a total volume of 25 μL, containing 13.9375 μL H2O, 6.25 μL master mix (Eurogentec, Seraing, Belgium), 0.375 μL forward primer, 0.375 μL reverse primer, 1 μL probe, 0.0625 μL reverse transcriptase (Eurogentec) and 3 μL sample. RT-PCR was performed using the ABI 7500 Fast Real-Time PCR System (Applied Biosystems, Branchburg, N.J., USA) using the following conditions: 30 min at 48° C. and 10 min at 95° C., followed by 40 cycles of 15 s at 95° C. and 1 min at 60° C. The data was analyzed using the ABI PRISM 7500 SDS software (version 1.3.1; Applied Biosystems). For absolute quantification, standard curves were generated using 10-fold dilutions of template preparations of known concentrations.

[2] = system: uninfected Vero cells; assay: in vitro; conditions: African green monkey
Experimental: (§1) Potential cytotoxic effects of the compounds were evaluated in uninfected Vero cells. Cells were seeded at 4×10^4 cells/well in a 96-well plate in the presence of two-, three- or five-fold serial dilutions (ranging from 50 μg/mL-0.0038 μg/mL, 50 μg/mL-0.0076 μg/mL, and 50 μg/mL-0.00013 μg/mL, respectively) of compound and incubated for 4 to 7 days. Culture medium was discarded and 100 μL 3-(4,5-dimethylthiazol-2-yl)-5-(3-carboxymethoxyphenyl)-2-(4-sulfophenyl)-2H-tetrazolium/phenazinemethosulfate (MTS/PMS; Promega, Leiden, The Netherlands) in PBS was added to each well. Following a 2-hour incubation period at 37° C., the optical density was determined at 498 nm. Cytotoxic activity was calculated using the following formula: % cell viability=100×(ODCompound/ODCC), where ODCompound and ODCC correspond to the optical density at 498 nm of the uninfected cell cultures treated with compound and that of uninfected, untreated cell cultures, respectively. The 50% cytotoxic concentration (i.e., the concentration that reduces the total cell number with 50%; CC50) was calculated using linear interpolation (Tables 7 and 8).

[3] = in vitro; conditions: African green monkey, CC50
Experimental: as §1

[4] = in vitro; conditions: African green monkey
Experimental: The antiviral activity of the compounds of the invention was tested against DENV-1 strain TC974#666 (NCPV), DENV-2 strain 16681, DENV-3 strain H87 (NCPV) and DENV-4 strains H241 (NCPV) and EDEN (SG/06K2270DK1/2005; GenBank accession number QG398256) in a RT-qPCR assay. Therefore, Vero cells were infected with either DENV-1, or -2, or -3, or -4 in the presence or absence of test compounds. At day 3 post-infection, the cells were lysed and cell lysates were used to prepare cDNA of both a viral target (the 3′UTR of DENV; table 2) and a cellular reference gene (β-actin, table 2). Subsequently, a duplex real time PCR was performed on a Lightcycler480 instrument. The generated Cp value is inversely proportional to the amount of RNA expression of these targets. Inhibition of DENV replication by a test compound result in a shift of Cp's for the 3′UTR gene. On the other hand, if a test compound is toxic to the cells, a similar effect on β-actin expression will be observed. The comparative ΔΔCp method is used to calculate EC50, which is based on the relative gene expression of the target gene (3′UTR) normalized with the cellular housekeeping gene (β-actin). In addition, CC50 values were determined based on the Cp values acquired for the housekeeping gene β-actin.
The culture medium consisted of minimal essential medium supplemented with 2% of heat-inactivated fetal calf serum, 0.04% gentamycin (50 mg/mL) and 2 mM of L-glutamine. Vero cells, obtained from ECACC, were suspended in culture medium and 75 μL/well was added in 96-well plates (10000 cells/well), which already contain the antiviral compounds. Typically, these plates contain a 4-fold serial dilution of 9 dilution steps of the test compound at 200 times the final concentration in 100% DMSO (500 nL; final concentration range: 25 μM-0.00038 μM). In addition, each plate contains wells which are assigned as virus controls (containing cells and virus in the absence of compound) and cell controls (containing cells in the absence of virus and compound). Once the cells were added in the plates, the plates were incubated in a fully humidified incubator (37° C., 5% CO2) until the next day. Then, DENV-1 strain TC974#666, DENV-2 strain 16681, DENV-3 strain H87 or DENV-4 strains H241 or EDEN were added. […] In parallel, 25 μL of culture medium was added to the cell controls. Next, the plates were incubated for 3 days in a fully humidified incubator (37° C., 5% CO2). After 3 days, the supernatant was removed from the wells and the cells were washed twice with ice-cold PBS (˜100 μL). The cell pellets within the 96-well plates were stored at −80° C. for at least 1 day. Next, RNA was extracted using the Cells-to-CT™ lysis kit, according to the manufacture's guideline (Applied Biosystems). The cell lysates can be stored at −80° C. or immediately used in the reverse transcription step.
Using the LightCycler software and an in-house LIMS system, dose response curves for each compound were calculated and the half maximal effective concentration (EC50) and the half maximal cytotoxic concentration (CC50) were determined (Tables 6-9).

With `COc1cc(NC(C(=O)c2c[nH]c3cc(F)c(F)cc23)c2ccc(Cl)cc2OC)cc(OCCO)c1` (single isomer, unassigned) [Compound 9A, 2-(4-chloro-2-methoxyphenyl)-1-(5,6-difluoro-1H-indol-3-yl)-2-((3-(2-hydroxyethoxy)-5-methoxyphenyl)amino)ethanone] the EC50 [1] was less than 0.00031 µM, the CC50 [2] was 12 µM and the CC50 [3] was 7.9 µM. For the same molecule, the CC50 at 3 days [4] was 4.7 µM.

With `COc1cc(NC(C(=O)c2c[nH]c3c(C)cc(F)cc23)c2ccc(Cl)cc2OC)cc(OCCO)c1` (single isomer, unassigned) [Compound 8A, 2-(4-chloro-2-methoxyphenyl)-1-(5-fluoro-7-methyl-1H-indol-3-yl)-2-((3-(2-hydroxyethoxy)-5-methoxyphenyl)amino)ethanone] the EC50 [1] was 0.0014 µM, the CC50 [2] was 11 µM and the CC50 [3] was 7.7 µM. The CC50 at 3 days [4] was 3.5 µM.

For `COc1cc(NC(C(=O)c2c[nH]c3c(F)cc(C)cc23)c2ccc(Cl)cc2OC)cc(OCCO)c1` (single isomer, unassigned) [Compound 10A, 2-(4-chloro-2-methoxyphenyl)-1-(7-fluoro-5-methyl-1H-indol-3-yl)-2-((3-(2-hydroxyethoxy)-5-methoxyphenyl)amino)ethanone], the EC50 [1] was 0.0014 µM, the CC50 [2] was 12 µM and the CC50 [3] was 8 µM. It also gave a CC50 at 3 days [4] of 4.1 µM.

Molecule `COc1cc(NC(C(=O)c2c[nH]c3cc(Cl)ccc23)c2ccc(Cl)cc2OC)cc(OCCO)c1` (single isomer, unassigned) [Compound 4A, 1-(6-chloro-1H-indol-3-yl)-2-(4-chloro-2-methoxyphenyl)-2-((3-(2-hydroxyethoxy)-5-methoxyphenyl)amino)ethanone] has an EC50 [1] of less than 0.00034 µM, a CC50 [2] of 13 µM and a CC50 [3] of 9.5 µM.

`COc1cc(NC(C(=O)c2c[nH]c3c(F)c(F)ccc23)c2ccc(Cl)cc2OC)cc(OCCO)c1` (single isomer, unassigned) [Compound 11B, 2-(4-chloro-2-methoxyphenyl)-1-(6,7-difluoro-1H-indol-3-yl)-2-((3-(2-hydroxyethoxy)-5-methoxyphenyl)amino)ethanone] showed an EC50 [1] of 0.00027 µM, a CC50 [2] of 11 µM and a CC50 [3] of 7.7 µM. It also gave a CC50 at 3 days [4] of 3.7 µM.

Work on `COc1cc(NC(C(=O)c2c[nH]c3cc(F)ccc23)c2ccc(Cl)cc2OC)cc(OCCO)c1` (single isomer, unassigned) [Compound 1A, 2-(4-chloro-2-methoxyphenyl)-1-(6-fluoro-1H-indol-3-yl)-2-((3-(2-hydroxyethoxy)-5-methoxyphenyl)amino)ethanone] yielded an EC50 [1] of 0.00038 µM, a CC50 [2] of 14 µM and a CC50 [3] of 9.7 µM.

In the case of `COc1cc(NC(C(=O)c2c[nH]c3c(C)c(F)ccc23)c2ccc(Cl)cc2OC)cc(OCCO)c1` (single isomer, unassigned) [Compound 2A, 2-(4-chloro-2-methoxyphenyl)-1-(6-fluoro-7-methyl-1H-indol-3-yl)-2-((3-(2-hydroxyethoxy)-5-methoxyphenyl)amino)ethanone], the EC50 [1] is reported as 0.0004 µM, the CC50 [2] is reported as 13 µM and the CC50 [3] is reported as 7.4 µM.

With `COc1cc(NC(C(=O)c2c[nH]c3cc(OC)c(F)cc23)c2ccc(Cl)cc2OC)cc(OCCO)c1` (single isomer, unassigned) [Compound 7A, 2-(4-chloro-2-methoxyphenyl)-1-(5-fluoro-6-methoxy-1H-indol-3-yl)-2-((3-(2-hydroxyethoxy)-5-methoxyphenyl)amino)ethanone] the EC50 [1] was 0.00027 µM, the CC50 [2] was 12 µM and the CC50 [3] was 7.2 µM. The CC50 at 3 days [4] was 4.6 µM.

In the case of `COc1cc(NC(C(=O)c2c[nH]c3c(C)c(Cl)ccc23)c2ccc(Cl)cc2OC)cc(OCCO)c1` (single isomer, unassigned) [Compound 3A, 2-(4-chloro-2-methoxyphenyl)-1-(6-chloro-7-methyl-1H-indol-3-yl)-2-((3-(2-hydroxyethoxy)-5-methoxyphenyl)amino)ethanone], the EC50 [1] is reported as less than 0.00033 µM, the CC50 [2] is reported as 12 µM and the CC50 [3] is reported as 7.7 µM. It also gave a CC50 at 3 days [4] of 3.8 µM.

In the case of `COc1cc(NC(C(=O)c2c[nH]c3cc(OC)ccc23)c2ccc(Cl)cc2OC)cc(OCCO)c1` (single isomer, unassigned) [Compound 5A, 2-(4-chloro-2-methoxyphenyl)-2-((3-(2-hydroxyethoxy)-5-methoxyphenyl)amino)-1-(6-methoxy-1H-indol-3-yl)ethanone], the EC50 [1] is reported as less than 0.0004 µM, the CC50 [2] is reported as 11 µM and the CC50 [3] is reported as 7.8 µM. For the same molecule, the CC50 at 3 days [4] was 5.2 µM.

For `COc1cc(NC(C(=O)c2c[nH]c3cc(OC)c(C)cc23)c2ccc(Cl)cc2OC)cc(OCCO)c1` (single isomer, unassigned) [Compound 6A, 2-(4-chloro-2-methoxyphenyl)-2-((3-(2-hydroxyethoxy)-5-methoxyphenyl)amino)-1-(6-methoxy-5-methyl-1H-indol-3-yl)ethanone], the EC50 [1] was 0.0004 µM, the CC50 [2] was 13 µM and the CC50 [3] was 8.1 µM.

Reference: patent US9944598B2, “Mono- or di-substituted indole derivatives as dengue viral replication inhibitors” (priority 2014, dated 2018)
